Reference: paper PMC3867503 (PLoS ONE, 2013)
“And” between values parts separate entries of the source, which are not always exact repeats. Identical values can stand only once. “Also recorded” adds a separate entry of the source. Like-named read-outs stand apart in the source and are kept apart here. Blank lines part the entries; values can stand above or below the compound they belong to.

Tests used:
recombinant human EYA3 [1] = biological target: T1, recombinant human EYA3 (Homo sapiens, UniProt Q99504); test: pNPP hydrolysis by EYA3 (tyrosine phosphatase enzyme assay); assay type: biochemical; conditions: for IC50: recombinant human EYA3, substrate pNPP, read-out: IC50 (95% confidence intervals), pNPP hydrolysis by EYA3
T1 construct: a splice variant of Q99504 corresponding to isoform 2 and missing residues 1 - 126; made in house
T1 sequence (Q99504 1-447 isoform Q99504-2): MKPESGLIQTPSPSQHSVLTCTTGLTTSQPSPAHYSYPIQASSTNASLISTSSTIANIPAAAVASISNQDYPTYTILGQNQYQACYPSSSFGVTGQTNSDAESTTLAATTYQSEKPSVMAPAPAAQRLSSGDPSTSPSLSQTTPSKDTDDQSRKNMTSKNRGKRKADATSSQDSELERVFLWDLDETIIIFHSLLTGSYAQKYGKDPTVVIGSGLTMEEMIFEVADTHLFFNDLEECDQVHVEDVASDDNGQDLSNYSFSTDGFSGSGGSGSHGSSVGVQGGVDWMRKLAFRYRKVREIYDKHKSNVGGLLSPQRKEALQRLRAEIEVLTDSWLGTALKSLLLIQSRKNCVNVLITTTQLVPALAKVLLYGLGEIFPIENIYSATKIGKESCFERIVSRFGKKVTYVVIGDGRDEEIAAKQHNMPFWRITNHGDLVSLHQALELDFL
Experimental: Purification of recombinant EYA3 has been reported previously. Assays using the colorimetric substrate p-nitrophenylphosphate were conducted as previously reported.
Enzymatic assays were conducted using recombinant human EYA3 (a splice variant of Q99504 corresponding to isoform 2 and missing residues 1 - 126) purified as described. The chromogenic substrate para-nitrophenylphosphate (pNPP) was used to measure catalytic activity of EYA3. […] To assay potential EYA inhibitors, the compounds were pre-incubated with EYA3, pNPP added, and the formation of the p-nitrophenolate product measured. […] In addition, an ex vivo examination of sprouting angiogenesis was conducted using the aortic ring assay.

HUVECs [2] = test: Scratch wound healing (cell migration) assay; assay type: cell-based, human
Experimental: 10^5 HUVECs/well were seeded on 24-well plates and cultured until they reached confluency in EGM-2. The monolayers were then scratch-wounded using a 200 μl pipette tip, washed with PBS, and incubated with EGM-2 complete medium and either EYA Inhibitors or vehicle control (0.2% DMSO). Wounds were photographed immediately upon insult, and at various time-points following wounding using a phase-contrast microscope. The number of cells that migrated into the cleared area was counted using the Cell Counter function of ImageJ [20].
The effect of the test compounds on cell migration was assessed using a scratch wound healing assay and HUVEC cells. Cells were plated and grown to confluency. Scratch wounds were made using a sterile pipette tip, the medium changed to remove any cellular debris, and fresh medium with either vehicle or test compound was introduced. The number of cells that migrated into the cleared space was counted 22 hours later. […] Previous experiments had shown a role for EYA3 in trans-well migration of HUVECs. […] Lentiviral shRNA targeting EYA3 in HUVECs led to greater than 80% reduction in EYA3 protein levels (Figure 4A).
Figure 3 Lateral migration of HUVECs in the presence of test compounds. […] (B) Number of cells that migrate into the wounded area was counted using the Cell Counter functionality of ImageJ. […]

[3] = system: aortic ring explants from C57BL/6 mice; test: Aortic ring sprouting assay (ex vivo); conditions: mouse aortic rings in collagen, initially 7.5 μM, 10-day treatment
Experimental: The preparation of rat collagen and the aortic ring assay were carried out as previously described. Briefly, aortic ring explants were obtained from C57BL/6 mice aged 4 to 6 weeks and cultured at 37°C in a humidified incubator under a 5% CO2 atmosphere in serum-free EBM. Within 30 minutes of dissection the rings were placed in a 3D collagen matrix supported by a UV-sterilized nylon mesh ring with inner and outer diameters of 3 mm and 5.6 mm, respectively. The matrix was prepared by mixing 8 parts of collagen solution, 1 part of 10x M199 and 1 part of 23.4mg/ml NaHCO3. After another 30 min incubation at 37°C, the assembly was transferred into a well of 96-well plate filled with 150 μl of culture medium; either control medium consisting of 0.1% DMSO in EBM, 2.5% FBS, penicillin/streptomycin and 20ng/ml VEGF165 or the test inhibitor dissolved in the control medium. Each compound was applied over a 10-day period with medium changes every two days. […]
This assay allows for analysis of cell proliferation, migration, tube formation, micro-vessel branching, and perivascular recruitment. […] All the test compounds were initially assayed at 7.5 μM and the number of branch-points counted. […]
Figure 6 Effect of test compounds on aortic ring sprouting. […] (B) Quantitation of the number of sprouts per ring with each bar representing at least 4 rings. *** P<0.001, ** P<0.01, * P<0.05, ns not significant).

HUVECs [4] = test: Tubulogenesis assay on growth-factor reduced Matrigel; assay type: cell-based, human
Experimental: Growth factor reduced Matrigel was thawed overnight on ice at 4°C. 40 μl Matrigel was added to each well of a 96-well plate and incubated for 30 mins to polymerize. 10,000 cells in 100 μl EGM-2 complete medium with either inhibitors or vehicle control (0.2% DMSO) were added to each well. Plates were incubated for 24 hours at 37°C, 5% CO2 and then photographed at 5X magnification. Tube length was measured using the NeuronJ plugin [21] for the NIH ImageJ software.
Primary endothelial cells (ECs) on basement membrane rapidly attach, align themselves and form capillary-like tubules with lumens and tight cell-cell contacts. […] To better understand the stage in matrigel tube-formation affected by 6OH-BBR we followed cells plated on growth-factor reduced matrigel and treated with either vehicle or 6OH-BBR (Figure 5C). Differences become apparent within the first two hours and are clearly visible at the 6-hour time-point. The ECs are much less organized in the presence of 6OH-BBR.
(A) Representative phase-contrast images of HUVECs plated on growth-factor reduced Matrigel in the presence of the indicated doses of test compounds, photographed 16 hours after plating. (B) Quantitation of the number of tube-like structures formed by HUVECs in the presence of test compounds. The number of tubes was measured using NeuronJ. […]

HUVECs [5] = test: HUVEC proliferation / cell viability assay (WST-8); assay type: cell-based, human; conditions: for effect on cell viability / proliferation: 72 hours
Experimental: 75% confluent HUVECs (<passage 8) were washed with PBS and trypsinized, deactivated with 10% FBS, spun down and counted. 1000 cells/well were seeded in triplicate in 100 μl EGM-2 complete medium either with inhibitors (in 0.2% DMSO) or vehicle alone (0.2% DMSO). After 0 hrs, 24 hrs, 48 hrs, 72 hrs of incubation at 37°C in […] 10 μl WST-8 was added to each well and incubated for 2 hours in the dark, at 37°C, […]. Absorption was read at 450 nm. Fold change was calculated as the ratio of the OD450 at the experimental time point and at the start of the experiment (0 hours).
A cell viability assay was conducted over 3 days of exposure to the test compounds in order to assess both the possibility of immediate cellular toxicity as well as any effect on cell proliferation. HUVECs were seeded and equilibrated for 24 hours before addition of the test compounds. Cellular metabolic activity was measured at defined time-points using the tetrazolium dye WST-8 to quantify NAD(P)H-dependent cellular oxidoreductase enzyme activity.
Figure 2 Proliferation of HUVECs in the presence of 7.5 μM test compounds. Cell viability was measured at 72 hours post-seeding. Asterisk represents significant differences between groups (*** P<0.001, * P<0.05).

[6] = cited from earlier work; for half-life: as previously reported; for maximal plasma concentration: single oral dose of 100 mg
recombinant human EYA3 [7] = biological target: T1, recombinant human EYA3; conditions: recombinant EYA3, substrate pNPP; reported previously; read-out: IC50 (95% confidence intervals), pNPP hydrolysis by EYA3; cited from earlier work
HUVECs [8] = conditions: cited from earlier work
[9] = set-up: method as in PMID 22398967; conditions: cited from earlier work

- IC50 (recombinant human EYA3 [1]): > 150 µM
Structure (SMILES): CCc1oc2ccc(O)cc2c1C(=O)c1ccc(O)cc1 [Compound 5OH-BZ]

- IC50 (recombinant human EYA3 [1]): 3.1 µM
Structure (SMILES): CCCCc1oc2ccccc2c1C(=O)c1cc(I)c(O)c(I)c1 [ODAA]
- inhibition of cell migration (in words) (HUVECs [2]): relatively weak inhibitor
- inhibition of tube formation (in words) (HUVECs [4]): relatively weak inhibitor
- fraction bound to plasma protein [9]: ~ 99.9%
- effect on cell viability / proliferation (HUVECs [5]; 7.5 μM test compound): small but significant positive effect on cell proliferation

- IC50 (recombinant human EYA3 [1]): 52.5 µM
Structure (SMILES): CC(O)c1oc2ccccc2c1C(=O)c1cc(Br)c(O)c(Br)c1 (centres unmarked) [1’OH-BBR, 1’-hydroxybenzbromarone]

- IC50 (recombinant human EYA3 [1]): 49.4 µM
Structure (SMILES): CCc1oc2ccc(O)cc2c1C(=O)c1cc(Br)c(O)c(Br)c1 [Compound 5OH-BBR, 5-hydroxy benzbromaorne]

Continued, compound first:

Structure (SMILES): CC(O)CCc1oc2ccccc2c1C(=O)c1cc(I)c(O)c(I)c1 (centres unmarked) [OH-ODAA]
- IC50 (recombinant human EYA3 [1]): 16.4 µM

Structure (SMILES): CCc1oc2cc(O)ccc2c1C(=O)c1cc(Br)c(O)c(Br)c1 [Compound 6OH-BBR, 6-hydroxybenzbromarone]
- reduction of cell migration (HUVECs [2]; 7.5 μM test compound, 22 hours after wounding): ~80%
- attenuation of aortic ring sprouting (in words) [3]: most potent inhibitor
- inhibition of tube formation (in words) (HUVECs [4]): much stronger inhibitory effect than BZ
- IC50 relative to BBR (recombinant human EYA3 [1]; EYA3 inhibition in vitro): over twice
- IC50 (recombinant human EYA3 [1]): 21.5 µM
- reduction in cell proliferation (HUVECs [5]; 7.5 μM test compound, 72 hours post-seeding): over 50%
- effect on cell proliferation at the 24-hour time-point (HUVECs [5]; 24 hours): attenuated cell proliferation
- half-life [6]: 30 h

Structure (SMILES): CCc1oc2ccccc2c1C(=O)c1ccc(O)cc1 [BZ, Benzarone, reference compound]
- IC50 (recombinant human EYA3 [7]): 17.5 µM
- effect on proliferation of HUVECs in the first 24 hours (HUVECs [8]): does not influence proliferation
- effect on cell viability / proliferation (HUVECs [5]; 7.5 μM test compound): reduced cell viability; also recorded: significant inhibition of cell proliferation

Structure (SMILES): Cc1oc2ccccc2c1C(=O)c1ccc(O)c(I)c1 [DIBZI]
- IC50 (recombinant human EYA3 [1]): 20.5 µM
- effect on cell viability / proliferation (HUVECs [5]; 7.5 μM test compound): small but significant positive effect on cell proliferation

Structure (SMILES): Cc1oc2ccccc2c1C(=O)c1cc(I)c(O)c(I)c1 [BZI]
- IC50 (recombinant human EYA3 [1]): 8.9 µM

Structure (SMILES): CCc1oc2ccccc2c1C(=O)c1cc(Br)c(O)c(Br)c1 [BBR, Benzbromarone]
- effect on proliferation of HUVECs in the first 24 hours (HUVECs [8]): does not influence proliferation
- effect on cell viability / proliferation (HUVECs [5]; 7.5 μM test compound): reduced cell viability; also recorded: significant inhibition of cell proliferation
- half-life [6]: 3 h
- maximal plasma concentration ([6]; rapid eliminators): 3.9 μg/ml and ~ 9.2 μM
- maximal plasma concentration ([6]; slow eliminator): 9.17 μg/ml and ~ 21.8 μM

Structure (SMILES): Cc1oc2ccccc2c1C(=O)c1ccc(O)cc1 [DMBZ]
- IC50 (recombinant human EYA3 [1]): 135 µM
